Measured values published in patent publication US10369145B2, “Coumarin derivatives and methods of use in treating hyperproliferative diseases” (DISCOVERYBIOMED, INC., priority 2013, dated 2019).
pIC50: −log10 of the molar value.

How the values were obtained:
Assay type in all cases: cell-based
T-47D = test: NCI 60 panel: T-47D (Breast Cancer)
Excerpt: (§1) TGI means the drug concentration resulting in total growth inhibition or “cytostasis.” LC50 is the concentration of drug resulting in a 50% reduction in the measured cytosolic ATP at the end of the drug treatment as compared to that at the beginning, indicating a net loss of cells following treatment (cytotoxicity).

HOP-62 = test: NCI 60 panel: HOP-62 (Non-Small Cell Lung Cancer)
Excerpt: as §1

DU-145 = test: NCI 60 panel: DU-145 (Prostate Cancer)
Excerpt: as §1

SNB-75 = test: NCI 60 panel: SNB-75 (CNS Cancer)
Excerpt: as §1

RPMI-8226 = test: NCI 60 panel: RPMI-8226 (Leukemia)
Excerpt: as §1

NCI-H322M = test: NCI 60 panel: NCI-H322M (Non-Small Cell Lung Cancer)
Excerpt: as §1

MDA-MB-468 = test: NCI 60 panel: MDA-MB-468 (Breast Cancer)
Excerpt: as §1

ARH-77 = test: Complementary DBM in vitro profiling: ARH-77 (Hematologic Cancer)
Method: The compounds described herein are effective for inhibiting cellular proliferation in hyperproliferative cell types. To study the effects of these compounds, an assay was developed to differentiate the effects of the compounds on proliferating versus confluent cells. The assay design generates a proliferating density 24 hours after seeding and provides a 3-day active cell growth/doubling window in which to gauge the anti-proliferative effect of the compounds described herein. […] In this 3-day growth window, cell number increases with daily doublings across the 72-hour period (see FIG. 1).
In each assay design, compounds were added at the 24-hour timepoint after cell seeding. The effect of the compounds, relative to vehicle control and to VelCade (a proteasome inhibitor approved in the U.S. for treating relapsed multiple myeloma and mantle cell lymphoma) as a positive control, was assessed across the 3-day growth window for proliferating cells and on an already near confluent culture of cells for the same time period. Normal cells were handled in the same manner, with some adjustment of seeding density needed in select cases. […]
Cell number at the end of the assay was determined using the CELLTITER-GLO Luminescent Cell Viability Assay (Promega; Madison, Wis.). The CELLTITER-GLO Luminescent Cell Viability Assay is a homogeneous method of determining the number of viable cells in culture based on quantitation of the ATP present, an indicator of metabolically active cells. IC50 values were calculated. […]
For a typical screening experiment to identify the compounds, cells were seeded into 96- or 384-well microtiter plates at plating densities pre-determined for each cell line to ensure drug exposure occurs during the proliferative phase well before confluency is reached. […] Values were calculated for each of these three parameters if the level of activity was reached; however, if the effect was not reached or was exceeded, the value for that parameter was expressed as greater or less than the maximum or minimum concentration tested.

CAKI-1 = test: NCI 60 panel: CAKI-1 (Renal Cancer)
Excerpt: as §1

HS 578T = test: NCI 60 panel: HS 578T (Breast Cancer)
Excerpt: as §1

HCT-116 = test: NCI 60 panel: HCT-116 (Colon Cancer)
Excerpt: as §1

COLO 205 = test: NCI 60 panel: COLO 205 (Colon Cancer)
Excerpt: as §1

PC-3 = test: NCI 60 panel: PC-3 (Prostate Cancer)
Excerpt: as §1

A549 = test: NCI 60 panel: A549 (Non-Small Cell Lung Cancer)
Excerpt: as §1

IGROV1 = test: NCI 60 panel: IGROV1 (Ovarian Cancer)
Excerpt: as §1

HT29 = test: NCI 60 panel: HT29 (Colon Cancer)
Excerpt: as §1

NCI-H460 = test: NCI 60 panel: NCI-H460 (Non-Small Cell Lung Cancer)
Excerpt: as §1

SN12C = test: NCI 60 panel: SN12C (Renal Cancer)
Excerpt: as §1

SK-MEL-2 = test: NCI 60 panel: SK-MEL-2 (Melanoma)
Excerpt: as §1

NCI-H23 = test: NCI 60 panel: NCI-H23 (Non-Small Cell Lung Cancer)
Excerpt: as §1

A498 = test: NCI 60 panel: A498 (Renal Cancer)
Excerpt: as §1

ACHN = test: NCI 60 panel: ACHN (Renal Cancer)
Excerpt: as §1

[1] = tested on: WT cells (cloned non-cystic kidney tissue cells); test: Concentration-response in primary cultures cloned from non-cystic kidney tissue; conditions: 72 hour treatment
Method: The concentration-response effects of Compound DBM 228, Compound DBM 308, Compound DBM 101, and Compound DBM 328 were determined in primary cultures derived as ‘clones’ from cystic versus non-cystic kidney tissue. CRC graphs, IC50 values, and the percent maximum inhibition versus lowest doses without effect were calculated with GraphPad Prism software. […] There was also a marked separation in effect between hyperproliferative PKD cells (FIG. 5A and Table 3) and WT cells (FIG. 5B and Table 4).

[2] = read-out: LC50 (the source's name)

COc1ccccc1Nc1nc(-c2cc3cccc(N)c3oc2=O)cs1 [Compound DBM 228]
TGI (T-47D): 55.9 µM
CC50 (T-47D; [2]): > 100 µM
GI50 (HOP-62): 0.537 µM
TGI (HOP-62): 44.8 µM
CC50 (HOP-62; [2]): > 100 µM
GI50 (DU-145): 0.356 µM
TGI (DU-145): 5.31 µM
CC50 (DU-145; [2]): 41 µM
GI50 (SNB-75): 0.0481 µM
CC50 (SNB-75; [2]): > 100 µM
GI50 (RPMI-8226): 0.238 µM
TGI (RPMI-8226): 43.9 µM
CC50 (RPMI-8226; [2]): > 100 µM
GI50 (NCI-H322M): 0.672 µM
TGI (NCI-H322M): 25.9 µM
CC50 (NCI-H322M; [2]): 93.3 µM
GI50 (MDA-MB-468): 0.0471 µM
TGI (MDA-MB-468): 0.8 µM
CC50 (MDA-MB-468; [2]): 60.9 µM
GI50 (ARH-77): 0.154 µM
TGI (ARH-77): 0.339 µM
CC50 (ARH-77; [2]): > 30 µM
GI50 (CAKI-1): 0.115 µM
TGI (CAKI-1): 27.9 µM
CC50 (CAKI-1; [2]): > 100 µM
GI50 (HS 578T): 13.7 µM
TGI (HS 578T): >100 µM
CC50 (HS 578T; [2]): > 100 µM
GI50 (HCT-116): 0.0795 µM
TGI (HCT-116): 10 µM
CC50 (HCT-116; [2]): > 100 µM
GI50 (COLO 205): 0.337 µM
TGI (COLO 205): 1.8 µM
CC50 (COLO 205; [2]): > 100 µM
GI50 (PC-3): 0.27 µM
TGI (PC-3): 36 µM
CC50 (PC-3; [2]): > 100 µM
GI50 (A549): 0.097 µM
TGI (A549): 22.6 µM
CC50 (A549; [2]): > 100 µM
GI50 (IGROV1): 1.23 µM
TGI (IGROV1): 23.4 µM
CC50 (IGROV1; [2]): > 100 µM
GI50 (HT29): 0.308 µM
TGI (HT29): 1.6 µM
CC50 (HT29; [2]): 24.7 µM
GI50 (NCI-H460): 0.0912 µM
TGI (NCI-H460): 14.2 µM
CC50 (NCI-H460; [2]): > 100 µM
GI50 (SN12C): 0.526 µM
TGI (SN12C): >100 µM
CC50 (SN12C; [2]): > 100 µM
GI50 (SK-MEL-2): 0.086 µM
TGI (SK-MEL-2): 28.4 µM
CC50 (SK-MEL-2; [2]): 99.5 µM
GI50 (NCI-H23): 0.504 µM
TGI (NCI-H23): 15.8 µM
CC50 (NCI-H23; [2]): 63.1 µM
GI50 (A498): 0.0354 µM
TGI (A498): 4.42 µM
CC50 (A498; [2]): > 100 µM
GI50 (ACHN): 1.49 µM
TGI (ACHN): 15.9 µM
CC50 (ACHN; [2]): 42.7 µM
pIC50 [1]: < 4.00
Max inhibition [1]: 49%
